The test system of the test is E. coli DEB31. Briefly: Antibiotics susceptibility of biofilm-grown cells, plate counting (modified Whiteley method). The note with it: for antibiotic concentration at which the number of living E. coli DEB31 equals that of wild-type MG1655 at the standard concentration: 24 h biofilm, then 10 h antibiotic at 30° C., MG1655 standard concentration: ampicillin 50, streptomycin 30, rifampicin 150 μg/ml. The test is classed as cell-based, Escherichia coli. Here is the method:
The antibiotics susceptibility of the variants was measured using the modified technique developed by Whiteley (Whiteley M., Nature, 413, 860, 2001). In other words, 96-well polystyrene plates containing 0.2 ml of LB culture were inoculated with the variants to be incubated for 24 hours to allow biofilm formation. Each well was added with various concentrations of antibiotics ranging from 0.25 μg to 64 μg and were incubated for 10 hours. The number of living cells was measured by plate counting method.
After incubating the variants in 96-well plates containing 200 μl of LB medium for 24 hours, the serial diluted antibiotics was added to each well at the following concentration ranges: ampicillin, from 0 to 128 μg/ml; streptomycin, from 0 to 64 μg/ml; and rifampicin, from 0 to 256 μg/ml. The cells were incubated for additional 10 hours at 30° C. after antibiotics addition. Then, the number of the living E. coli variants was counted using the standard plate counting method.

As for `CC1(C)S[C@@H]2[C@H](NC(=O)[C@H](N)c3ccccc3)C(=O)N2[C@H]1C(=O)O` [ampicillin], the “antibiotic concentration at which the number of living E. coli DEB31 equals that of wild-type MG1655 at the standard concentration” value (from here on “antibiotic concentration”) is 2 µg/mL.
For the compound `CO[C@H]1/C=C/O[C@@]2(C)Oc3c(C)c(O)c4c(O)c(c(/C=N/N5CCN(C)CC5)c(O)c4c3C2=O)NC(=O)/C(C)=C\C=C\[C@H](C)[C@H](O)[C@@H](C)[C@@H](O)[C@@H](C)[C@H](OC(C)=O)[C@@H]1C` [rifampicin], the “antibiotic concentration” value amounted to 32 µg/mL. The “increase of antibiotics susceptibility versus wild-type MG1655” value (DEB31 / biofilm-deficient variants vs MG1655) is recorded as “about 5 fold”.
As for `[H]/N=C(/N)N[C@H]1[C@H](O)[C@@H](O)[C@H](O[C@@H]2O[C@@H](C)[C@](O)(C=O)[C@H]2O[C@@H]2O[C@@H](CO)[C@H](O)[C@@H](O)[C@@H]2NC)[C@@H](N/C(N)=N\[H])[C@@H]1O` [streptomycin], the “antibiotic concentration” value came to 8 µg/mL.

The values are drawn from US20070287180A1, “Linear Dna Fragment For Markerless Deletion, Novel Strain Having Inhibited Formation Of Biofilm And Preparation Method Thereof” (priority 2004, published 2007).
